Patent EP4800018A1, “PAN-KRAS INHIBITOR AND USE THEREOF IN MEDICINES” (Betta Pharmaceuticals Co., Ltd., priority 2023, dated 2025)
Read-outs that look alike come from different tables or passages of the source. One block for each compound: values may come before it.

Legend:
[1] = PK Study of Compounds in Rats; type: in vivo, Male SD rats; settings: mean; for F: PO 10 mg/kg vs IV 1 mg/kg (n=3); for Cmax: read-out: C0/Cmax; for Vd: read-out: Vss
Protocol: (§1) The test compound was mixed with the vehicle (10% DMSO/5% Solutol/85% physiological saline), vortexed and sonicated to prepare a clear 0.5 mg/mL intravenous injection solution. The test compound was mixed with the vehicle (20% PEG400/10% Solutol/70% pH 4.5 acetate buffer), vortexed and sonicated to prepare a clear 1 mg/mL oral solution. Male SD rats aged 6 to 7 weeks were selected and administered the test compound via intravenous (IV) and oral (PO) routes, respectively. Whole blood samples were collected at 5 min, 15 min, 30 min, 1 h, 2 h, 4 h, 7 h, and 24 h for the intravenous route, and at 15 min, 30 min, 1 h, 2 h, 4 h, 7 h, and 24 h for the oral route. Drug concentrations were analyzed by LC-MS/MS method, and pharmacokinetic parameters were calculated using Phoenix WinNonlin software (Pharsight, USA).

[2] = tested on: KRAS-G12D mutant tumor cells AGS; experiment: Cell Proliferation Inhibition Assay (AGS), Cell-titer GLO, 96 h; type: cell-based; settings: read-out: AGS(G12D)
Outline: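 Inhibition % was derived from CellTiter-Glo luminescence (max minus measured, over max minus blank) and fitted to give IC50. Cells were KRAS-G12D AGS in low-attachment wells, treated for 96 h at 37°C.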

[3] = tested on: KRAS-G12V mutant tumor cells SW620; experiment: Cell Proliferation Inhibition Assay (SW620), Cell-titer GLO, 96 h; type: cell-based; settings: read-out: SW620(G12V)
Outline: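 Readout: Cell-titer GLO luminescence after 96 h at 37°C, converted to percent inhibition against 0.5% DMSO and blank controls, with IC50 from curve fit. Low-attachment SW620 cultures (1×10^3 cells/well) were dosed at 10000–0.03 nM final.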

KRAS G12V-cRAF = molecular target: T1, KRAS G12V-cRAF (Homo sapiens, UniProt P01116, G12V); experiment: Cellular KRAS G12V-cRAF Binding Inhibition Assay (NanoBRET, AD293 stable cells); type: cell-based; settings: 3 h incubation
T1 construct: expressed in transfected cells
T1 sequence (P01116 1-188 isoform P01116-2 G12V): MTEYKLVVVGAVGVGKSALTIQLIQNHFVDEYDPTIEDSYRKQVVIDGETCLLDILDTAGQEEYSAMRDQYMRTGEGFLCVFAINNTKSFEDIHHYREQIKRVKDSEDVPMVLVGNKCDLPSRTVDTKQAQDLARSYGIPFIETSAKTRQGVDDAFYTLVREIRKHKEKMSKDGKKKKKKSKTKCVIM
Outline: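 Binding measured as BRET between NanoLuc and HaloTag-bound NanoBRET 618 ligand (added overnight) in stably expressing AD293 cells. Signals were converted to percent inhibition against max and blank wells and fitted for IC50.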

KRAS G12D-cRAF = molecular target: T2, KRAS G12D-cRAF (Homo sapiens, UniProt P01116, G12D); experiment: Cellular KRAS G12D-cRAF Binding Inhibition Assay (NanoBRET, AD293 stable cells); type: cell-based; settings: 3 h incubation
T2 construct: expressed in transfected cells
T2 sequence (P01116 1-188 isoform P01116-2 G12D): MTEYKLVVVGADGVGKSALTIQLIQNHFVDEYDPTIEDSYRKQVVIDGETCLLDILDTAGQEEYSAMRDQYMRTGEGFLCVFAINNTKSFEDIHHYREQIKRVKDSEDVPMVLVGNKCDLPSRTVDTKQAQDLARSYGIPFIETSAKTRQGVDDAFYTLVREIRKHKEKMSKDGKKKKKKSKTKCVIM
Outline: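 IC50 values derive from fitted % inhibition, normalised to maximum signal and medium-only blank. The read-out is NanoBRET between KRAS G12D-NanoLuc (donor) and cRAF RBD-HaloTag labelled with the 618 ligand (acceptor), in live stably transfected AD293 cells at 1×10^4/well.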

[4] = PK Study of Compounds in Mice; type: in vivo, Female ICR mice; settings: mean; for Cmax: read-out: C0/Cmax
Protocol: as §1, with “0.2” for “0.5”, “Female ICR mice” for “Male SD rats”

[5] = male, SD, rat, whole blood, IV 1 mg/kg (n=3)
[6] = male, SD, rat, whole blood, IV 1 mg/kg (n=3), read-out: AUC0-t
[7] = male, SD, rat, whole blood, PO 10 mg/kg (n=3), read-out: AUC0-t
[8] = male, SD, rat, whole blood, PO 10 mg/kg (n=3)
[9] = male, SD, rat, whole blood, PO 10 mg/kg (n=3), read-out: Tmax
[10] = Homo sapiens, AGS, 96 h, AGS cells, 96 h incubation, Cell-titer GLO
[11] = Homo sapiens, SW-620, 96 h, SW620 cells, 96 h incubation, Cell-titer GLO
[12] = female, ICR, mouse, whole blood, IV 1 mg/kg (n=3)
[13] = female, ICR, mouse, whole blood, PO 10 mg/kg (n=3)

Compound: (1S,2S)-2-(difluoromethyl)-N-((1^5S,6^4S,4S,Z)-1^5,10,10-trimethyl-1^2-(4-methylpiperazin-1-yl)-5, 7-dioxo-1^8,1^9-dihydro-1^5H,1^7H-8-oxa-6^2,6^3-diaza-1(13,15)-pyrido[3',2':7,8][1,5]oxazonino[5,6-a ]indola-2(4,2)-thiazola-6(2,4)-bicyclo[3.1.1]heptanacycloundecaphane-4-yl)cyclopropane-1-carb oxamide [Example 184]
- AUC(0-t) ([1]; IV 1 mg/kg (n=3)): 5558 ng·h/mL
- CL ([1]; IV 1 mg/kg (n=3)): 2.56 mL/min/kg
- T1/2 ([1]; IV 1 mg/kg (n=3)): 9.07 h
- Vss ([1]; IV 1 mg/kg (n=3)): 1.71 L/kg
- AUC(0-t) ([1]; PO 10 mg/kg (n=3)): 10910 ng·h/mL
- Tmax ([1]; PO 10 mg/kg (n=3)): 3.33 h
- F [1]: 19.6
- IC50 ([2]; AGS cells, 96 h incubation, Cell-titer GLO): 0.9 nM
- IC50 ([3]; SW620 cells, 96 h incubation, Cell-titer GLO): 0.65 nM

Compound: CC1OCCCn2c(c3c4cc(ccc42)-c2csc(n2)CC(NC(=O)C2CC2C(F)F)C(=O)N2CCCC(N2)C(=O)OCC(C)(C)C3)-c2cc(N3CCC(N(C)C)CC3)cnc21 [Example 105, (1S,2S)-2-(difluoromethyl)-N-((1^5S,6^3S,4S,Z)-1^2-(4-(dimethylamino)piperidin-1-yl)-1^5,10,10-trimethyl-5,7-dioxo-1^8,1^9,6^1,6^2,6^3,6^4,6^5,6^6-octahydro-1^5H,1^7H-8-oxa-1(13,15)-pyrido[3',2':7,8][1,5]oxazonino[5,6-a]indola-2(4,2)-thiazola-6(1,3)-pyridazinacycloundecaphane-4-yl)cyclopropane-1-carboxamide]
- IC50 (KRAS G12V-cRAF; read-out: NanoBRET KRAS G12V): 16.6 nM
- IC50 [2, 10]: 0.69 nM
- IC50 (KRAS G12D-cRAF; read-out: NanoBRET KRAS G12D): 4.55 nM
- IC50 [3, 11]: 0.24 nM

Compound: C[C@H]1C[C@@H]1C(=O)N[C@H]1Cc2nc(cs2)-c2ccc3c(c2)c(c2n3[C@@H](C)CCOCc3ncc(N4CCN(C)CC4)cc3-2)CC(C)(C)COC(=O)[C@@H]2CCCN(N2)C1=O [Example 4, (1S,2S)-2-methyl-N-((1^9S,6^3S,4S,Z)-1^9,10,10-trimethyl-1^2-(4-methylpiperazin-1-yl)-5,7-dioxo-1 ^8,1^9,6^1,6^2,6^3,6^4,6^5,6^6-octahydro-1^5H,1^7H-8-oxa-1(13,15)-pyrido[3',2':7,8][1,5]oxazonino[5,6-a]indola-2(4,2)-thiazola-6(1,3)-pyridazinacycloundecaphane-4-yl)cyclopropane-1-carboxamide]
- IC50 (KRAS G12V-cRAF; NanoBRET KRAS G12V): 651 nM
- IC50 ([2]; Homo sapiens, AGS, 96 h): 51.9 nM
- IC50 (KRAS G12D-cRAF; NanoBRET KRAS G12D): 155 nM
- IC50 ([3]; Homo sapiens, SW-620, 96 h): 6.2 nM

Results, then the compound that gave them:

- F [1]: 32.4
- clearance [1, 5]: 2.22 mL/min/kg
- half-life [1, 5]: 7.22 h
- AUC(0-t) [1, 6]: 6940 ng·h/mL
- Cmax [1, 5]: 6060 ng/mL
- Vd [1, 5]: 1.08 L/kg
- AUC(0-t) [1, 7]: 22500 ng·h/mL
- Cmax [1, 8]: 2060 ng/mL
- Tmax [1, 9]: 3.33 h
- IC50 (KRAS G12V-cRAF; read-out: NanoBRET KRAS G12V): 8.4 nM
- IC50 [2, 10]: 0.37 nM
- IC50 (KRAS G12D-cRAF; read-out: NanoBRET KRAS G12D): 2 nM
- IC50 [3, 11]: 0.09 nM
- F ([4]; PO 10 mg/kg vs IV 1 mg/kg (n=3)): 54.0
- AUC(0-t) [4, 12]: 2450 ng·h/mL
- clearance [4, 12]: 5.75 mL/min/kg
- half-life [4, 12]: 8.9 h
- Cmax [4, 12]: 462 ng/mL
- Vd ([4]; female, ICR, mouse, whole blood, IV 1 mg/kg (n=3), read-out: Vss): 4.66 L/kg
- AUC(0-t) [4, 13]: 13200 ng·h/mL
- Tmax [4, 13]: 2 h
- Cmax [4, 13]: 1300 ng/mL
Compound: CC1OCCCn2c(c3c4cc(ccc42)-c2csc(n2)CC(NC(=O)C2C(C)C2C)C(=O)N2NC(C(=O)OCC(C)(C)C3)C3CC2C3)-c2cc(N3CCN(C4COC4)CC3)cnc21 [Example 198, (1r,2R,3S)-N-((1^5S,6^4S,4S,Z)-1^2-(4-(oxetan-3-yl)piperazin-1-yl)-1^5,10,10-trimethyl-5,7-dioxo-1^8 ,1^9-dihydro-1^5H,1^7H-8-oxa-6^2,6^3-diaza-1(13,15)-pyrido[3',2':7,8][1,5]oxazonino[5,6-a]indola-2(4 ,2)-thiazola-6(2,4)-bicyclo[3.1.1]heptanacycloundecaphane-4-yl)-2,3-dimethylcyclopropane-1-ca rboxamide]

- F [1]: 11.9
- clearance [1, 5]: 3.59 mL/min/kg
- half-life [1, 5]: 4.93 h
- AUC(0-t) [1, 6]: 4500 ng·h/mL
- Cmax [1, 5]: 4220 ng/mL
- Vd [1, 5]: 1.11 L/kg
- half-life [1, 8]: 5.13 h
- AUC(0-t) [1, 7]: 5350 ng·h/mL
- Cmax [1, 8]: 472 ng/mL
- Tmax [1, 9]: 3.33 h
- IC50 (KRAS G12V-cRAF; read-out: NanoBRET KRAS G12V): 16.3 nM
- IC50 [2, 10]: 1.5 nM
- IC50 (KRAS G12D-cRAF; read-out: NanoBRET KRAS G12D): 4.3 nM
- IC50 [3, 11]: 0.9 nM
Compound: CC1OCCCn2c(c3c4cc(ccc42)-c2csc(n2)CC(NC(=O)C2C4COCC42)C(=O)N2NC(C(=O)OCC(C)(C)C3)C3CC2C3)-c2cc(N3CCN(C)CC3)cnc21 [Example 192, (1R,5S,6r)-N-((1^5S,6^4S,4S,Z)-1^5,10,10-trimethyl-1^2-(4-methylpiperazin-1-yl)-5,7-dioxo-1^8,1^9-dihydro-1^5H,1^7H-8-oxa-6^2,6^3-diaza-1(13,15)-pyrido[3',2':7,8][1,5]oxazonino[5,6-a]indola-2(4,2)-thiazola-6(2,4)-bicyclo[3.1.1]heptanacycloundecaphane-4-yl)-3-oxabicyclo[3.1.0]hexane-6-carboxamide]

- IC50 (KRAS G12V-cRAF; read-out: NanoBRET KRAS G12V): 8.52 nM
- IC50 [2, 10]: 1.4 nM
- IC50 (KRAS G12D-cRAF; read-out: NanoBRET KRAS G12D): 1.97 nM
- IC50 [3, 11]: 0.6 nM
Compound: CC1OCCCn2c(c3c4cc(ccc42)-c2coc(n2)CC(NC(=O)C2CC2C(F)F)C(=O)N2CCCC(N2)C(=O)OCC(C)(C)C3)-c2cc(N3CCOCC3)cnc21 [Example 146, (1S,2S)-2-(difluoromethyl)-N-((1^5S,6^3S,4S,Z)-1^5,10,10-trimethyl-1^2-morpholino-5,7-dioxo-1^8,1^9, 6^1,6^2,6^3,6^4,6^5 6-octahydro-1^5H,1^7H-8-oxa-1(13,15)-pyrido[3',2':7,8][1,5]oxazonino[5,6-a]indola-2(4,2)-oxazola-6(1,3)-pyridazinacycloundecaphane-4-yl)cyclopropane-1-carboxamide]

- IC50 (KRAS G12V-cRAF; read-out: NanoBRET KRAS G12V): 30.6 nM
- IC50 [2, 10]: 3.77 nM
- IC50 (KRAS G12D-cRAF; read-out: NanoBRET KRAS G12D): 7.2 nM
- IC50 [3, 11]: 1.5 nM
Compound: CC1OCCCn2c(c3c4cc(ccc42)-c2csc(n2)CC(NC(=O)C2CC2C)C(=O)N2CCCC(N2)C(=O)OCC(C)(C)C3)-c2cc(N3CCOCC3)cnc21 [Example 118, (1S,2S)-2-methyl-N-((1^5S,6^3S,4S,Z)-1^5,10,10-trimethyl-1^2-morpholino-5,7-dioxo-1^8,1^9,6^1,6^2,6^3,6 ^4,6^5,6^6-octahydro-1^5H,1^7H-8-oxa-1(13,15)-pyrido[3',2':7,8][1,5]oxazonino[5,6-a]indola-2(4,2)-thiazola-6(1,3)-pyridazinacycloundecaphane-4-yl)cyclopropane-1-carboxamide]
